# Assay results published in ChEMBL document CHEMBL5214933, “Discovery of Selenium-Containing STING Agonists as Orally Available Antitumor Agents” (J Med Chem, 2022).
# Active and inactive are the calls of the source. The rule behind the calls is not given here.
# Assays:
# [1] = Permeability of the compound in PBS buffer incubated for 5 hrs by PAMPA-based LC-MS/MS analysis; type: ADME; details: read-out: permeability
# [2] = Stability in rat liver microsomes assessed as parent compound remaining at 1 uM incubated for 2 hrs in presence of NADPH by LC-MS/MS analysis; type: ADME, Microsome; details: read-out: Stability
# CYP3A4 = CYP3A4 (Homo sapiens, UniProt P08684); experiment: Inhibition of recombinant CYP3A4 (unknown origin) using midazolam as substrate assessed as reduction in substrate hydroxylation at 10 uM incubated for 5 mins in presence of NADPH by LC-MS/MS analysis relative to control; type: ADME; details: recombinant CYP3A4, probe midazolam
# Chain of CYP3A4 (P08684 whole entry): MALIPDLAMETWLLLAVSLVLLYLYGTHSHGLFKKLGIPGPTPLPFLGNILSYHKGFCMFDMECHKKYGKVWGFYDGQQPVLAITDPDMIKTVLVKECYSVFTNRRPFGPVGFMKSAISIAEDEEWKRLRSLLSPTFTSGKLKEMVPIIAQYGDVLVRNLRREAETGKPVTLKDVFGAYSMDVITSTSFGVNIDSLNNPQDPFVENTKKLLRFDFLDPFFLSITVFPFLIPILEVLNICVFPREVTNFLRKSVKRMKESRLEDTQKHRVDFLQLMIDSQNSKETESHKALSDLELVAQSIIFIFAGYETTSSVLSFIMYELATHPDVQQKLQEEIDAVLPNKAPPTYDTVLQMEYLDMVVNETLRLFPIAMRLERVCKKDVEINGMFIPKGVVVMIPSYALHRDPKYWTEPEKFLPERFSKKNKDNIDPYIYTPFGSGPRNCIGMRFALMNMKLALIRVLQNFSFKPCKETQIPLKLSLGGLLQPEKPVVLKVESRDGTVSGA
# [3] = Stability in human plasma assessed as interconversion into (S)-4-(5,6-Dimethoxybenzo[b]selenophen-2-yl)-2-ethyl-4-oxobutanoic acid incubated for 24 hrs by normal-phase HPLC analysis; type: ADME, cell-free
# [4] = Stability in rat plasma assessed as interconversion into (S)-4-(5,6-Dimethoxybenzo[b]selenophen-2-yl)-2-ethyl-4-oxobutanoic acid incubated for 24 hrs by normal-phase HPLC analysis; type: ADME, cell-free
# [5] = Stability in dog plasma assessed as interconversion into (S)-4-(5,6-Dimethoxybenzo[b]selenophen-2-yl)-2-ethyl-4-oxobutanoic acid incubated for 24 hrs by normal-phase HPLC analysis; type: ADME, cell-free, Canis lupus familiaris
# [6] = AUC (0 to infinity) in Sprague-Dawley rat at 50 mg/kg, po measured for 1440 mins by LC-MS/MS analysis; type: ADME, organism-based; design: time 1440 min, dose 50 mg/kg, route po; details: in vivo
# [7] = Half life in Sprague-Dawley rat at 5 mg/kg, iv measured for 1440 mins by LC-MS/MS analysis; type: ADME, organism-based; details: in vivo
# [8] = Clearance in Sprague-Dawley rat at 50 mg/kg, po measured for 1440 mins by LC-MS/MS analysis; type: ADME, organism-based; details: in vivo
# [9] = Oral bioavailability in Sprague-Dawley rat at 50 mg/kg measured for 1440 mins by LC-MS/MS analysis; type: ADME, organism-based; details: in vivo
# MC-38 [10] = experiment: Antitumor activity against mouse MC38 cells implanted in C57BL/6 mouse assessed as tumor growth regression at 30 mg/kg, po administered once every 3 days and measured after 21 days by digital caliper analysis relative to control; type: functional; details: time 21 day
# [11] = Toxicity in naive BALB/c mouse implanted with mouse 4T1-Luc cells assessed as reduction in body weight at 20 mg/kg, po measured after 15 days; type: organism-based; details: in vivo, 360 h, time 15 day
# MC-38 [12] = experiment: In vivo activation of STING in naive […] mouse implanted with mouse MC38 cells assessed as increase in IL-6 level in plasma at 30 mg/kg, po administered as single dose and measured after 4 hrs by ELISA; type: functional, organism-based
# Mus musculus [13] = experiment: Immunostimulatory activity in naive […] mouse implanted with mouse MC38 cells assessed as increase in T cells in spleen at 30 mg/kg, po by FACS analysis; type: functional, organism-based; details: MC-38
# Mus musculus [14] = experiment: Immunostimulatory activity in naive […] mouse implanted with mouse MC38 cells assessed as increase in NK cells in spleen at 30 mg/kg, po by FACS analysis; type: functional, organism-based; details: MC-38
# 4T1 [15] = experiment: Antitumor activity against mouse 4T1 cells implanted in naive BALB/c mouse assessed as tumor growth inhibition at 20 mg/kg, po administered once every 5 days and measured every 3 days by digital caliper analysis; type: functional, organism-based; details: time 5.0 day
# 4T1 [16] = experiment: Antitumor activity against mouse 4T1 cells implanted in naive BALB/c mouse assessed as increase in Ki67-positive CD4 T cells in tumor at 20 mg/kg, po administered once every 5 days by FACS analysis (reference value: 4.4%); type: functional; details: time 5 day
# 4T1 [17] = experiment: Antitumor activity against mouse 4T1 cells implanted in naive BALB/c mouse assessed as increase in Ki67-positive CD8 T cells in tumor at 20 mg/kg, po administered once every 5 days by FACS analysis (reference value: 14%); type: functional; details: time 5 day
# [18] = target: T1, Stimulator of interferon genes protein (Homo sapiens, UniProt Q86WV6); experiment: Agonist activity at STING in human THP-1 cells harboring IRF-inducible luciferase reporter construct assessed as fold change in ISG signalling at 20 uM incubated for 12 hrs by Quanti-luc reagent based assay relative to control; type: cell-based; details: filed as agonist
# Target sequence in this assay (Q86WV6 whole entry): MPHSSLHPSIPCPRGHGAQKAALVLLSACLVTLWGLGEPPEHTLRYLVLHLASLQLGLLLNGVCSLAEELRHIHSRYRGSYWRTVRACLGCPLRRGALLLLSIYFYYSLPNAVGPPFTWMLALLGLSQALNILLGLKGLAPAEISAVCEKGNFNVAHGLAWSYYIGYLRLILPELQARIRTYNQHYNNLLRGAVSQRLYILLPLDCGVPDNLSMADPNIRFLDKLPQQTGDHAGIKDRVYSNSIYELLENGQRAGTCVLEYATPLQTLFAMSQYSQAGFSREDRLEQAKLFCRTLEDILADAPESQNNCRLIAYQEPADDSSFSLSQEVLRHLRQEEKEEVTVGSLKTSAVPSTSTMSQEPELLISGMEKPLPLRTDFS
# [19] = target: T1, Stimulator of interferon genes protein; experiment: Binding affinity to recombinant human STING H232 variant expressed in Escherichia coli BL21 (DE3) assessed as dissociation constant by multicycle SPR analysis
# Target sequence in this assay (Q86WV6 whole entry, looked up, change not shown): as the sequence (Q86WV6 whole entry) above
# [20] = tested on: Stimulator of interferon genes protein (Homo sapiens), Q86WV6 [UNDEFINED MUTATION]; experiment: Binding affinity to recombinant human STING R232 variant expressed in Escherichia coli BL21 (DE3) assessed as thermal stabilization by measuring change in melting temperature at 0.1 mM incubated for 30 mins by SYPRO orange dye based differential scanning fluorimetry assay
# Chain of Stimulator of interferon genes protein (Homo sapiens), Q86WV6 [UNDEFINED MUTATION] (Q86WV6 whole entry, looked up, stated change not applied): as the sequence (Q86WV6 whole entry) above
# [21] = target: T1, Stimulator of interferon genes protein; experiment: Agonist activity at STING in human THP-1 cells harboring IRF-inducible luciferase reporter construct assessed as increase in relative fluorescence unit incubated for 12 hrs by Quanti-luc reagent based assay; type: cell-based
# Target sequence in this assay (Q86WV6 whole entry): as above
# [22] = target: T2, Stimulator of interferon genes protein (Mus musculus, UniProt Q3TBT3); experiment: Agonist activity at STING in mouse RAW264.7 cells harboring IRF-inducible luciferase reporter construct assessed as increase in relative fluorescence unit incubated for 12 hrs by Quanti-luc reagent based assay; type: cell-based
# T2 sequence (Q3TBT3 whole entry): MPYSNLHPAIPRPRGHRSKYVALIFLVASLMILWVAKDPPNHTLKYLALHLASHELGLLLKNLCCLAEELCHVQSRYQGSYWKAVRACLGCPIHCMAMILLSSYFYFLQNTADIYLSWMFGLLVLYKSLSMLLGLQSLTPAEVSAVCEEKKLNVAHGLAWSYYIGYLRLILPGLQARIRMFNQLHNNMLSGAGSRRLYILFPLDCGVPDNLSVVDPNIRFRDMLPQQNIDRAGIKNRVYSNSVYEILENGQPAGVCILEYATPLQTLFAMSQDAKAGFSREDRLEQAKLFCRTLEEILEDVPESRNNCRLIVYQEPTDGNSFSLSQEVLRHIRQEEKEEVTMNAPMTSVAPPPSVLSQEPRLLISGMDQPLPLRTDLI
# [23] = target: T3, Stimulator of interferon genes protein (Mus musculus) (UniProt Q3TBT3); experiment: Agonist activity at STING in mouse RAW264.7 cells harboring IRF-inducible luciferase reporter construct assessed as increase in […] mRNA expression at 10 to 50 uM measured after 1 hr by qRT-PCR analysis; type: cell-based; details: filed as agonist, dose 10-50 µM
# T3 sequence (whole entry): T2 sequence (Q3TBT3 whole entry)
# [24] = target: T1, Stimulator of interferon genes protein; experiment: Agonist activity at STING in human THP-1 cells assessed as increase in IL6 mRNA expression at 10 uM measured after 3 hrs by qRT-PCR analysis; type: cell-based; details: filed as agonist
# Target sequence in this assay (Q86WV6 whole entry): as the sequence (Q86WV6 whole entry) above
# [25] = target: T3, Stimulator of interferon genes protein (Mus musculus); experiment: Agonist activity at STING in mouse MEF cells assessed as increase in IFNbeta mRNA expression at 10 uM measured after 3 hrs by qRT-PCR analysis; type: cell-based; details: filed as agonist
# [26] = target: T3, Stimulator of interferon genes protein (Mus musculus); experiment: Agonist activity at STING in mouse MEF cells assessed as increase in CXCL10 mRNA expression at 10 uM measured after 3 hrs by qRT-PCR analysis; type: cell-based; details: filed as agonist
# [27] = target: T3, Stimulator of interferon genes protein (Mus musculus); experiment: Agonist activity at STING in mouse MEF cells assessed as increase in IL6 mRNA expression at 10 uM measured after 3 hrs by qRT-PCR analysis; type: cell-based; details: filed as agonist
smiles,measurement,setting,value
CC[C@H](CC(=O)c1cc2cc(OC)c(OC)cc2[se]1)C(=O)O,Papp at 5 h,[1],2.04 ×10⁻⁶ cm/s
same,"remaining at 2 h, 1 µM",[2],100%
same,"inhibition at 5 min, 10 µM",CYP3A4,13.5%
same,Stability,[3],Stable
same,Stability,[4],Stable
same,Stability,[5],Stable
same,AUC(0-inf),[6],316 µg·h/mL
same,half-life,[7],1.04 h
same,CL/F,[8],2.67 mL/min/kg
same,bioavailability,[9],107%
same,Activity,MC-38 [10],100%
same,Activity,[11],Non-Toxic
same,Activity,MC-38 [12],Active
same,Activity,Mus musculus [13],Active
same,Activity,Mus musculus [14],Active
same,Activity,4T1 [15],Active
same,Activity,4T1 [16],25.4%
same,Activity,4T1 [17],25.2%
same,fold change (FC),[18],37
same,Kd,[19],58 µM
same,ΔTm,[20],18.1 °C
same,EC50,[21],9.24 µM
same,EC50,[22],5.71 µM
same,Activity,[23],Active
same,Activity,[24],Active
same,Activity,[25],Active
same,Activity,[26],Active
same,Activity,[27],Active
